From patent publication US20260109693A1, “BUTENOLIDE COMPOUNDS CONTAINING THIAZOLIDINONE STRUCTURE AS WELL AS PREPARATION METHOD THEREFOR AND USE THEREOF” (priority 2023, published 2026)
In brackets after ≈: the same amount, converted by molar mass.

Tests used:
[1] = system: Pathogenic fungi of rape sclerotinia; assay: In vitro fungicidal activity, mycelial growth rate method; format: cell-based; details: 50 mg/L, PDA plate; for inhibition at 50 µg/mL: Sclerotinia
[2] = system: Pathogenic fungi of rice sheath blight; assay: as above; format: cell-based; details: 50 mg/L, PDA plate
[3] = system: Pathogenic fungi of rice bakanae disease; assay: as above; format: cell-based; details: 50 mg/L, PDA plate
[4] = system: Rape sclerotinia pathogenic fungi; assay: Precise toxicity testing, five concentration gradients of toxic PDA plates; format: cell-based
[5] = system: Wheat scab pathogenic fungi; format: cell-based
[6] = system: Pathogenic fungi of wheat scab; assay: whole plant or invertebrate; format: cell-based; details: for inhibition rate, Pathogenic fungi of wheat scab: 50 mg/L, PDA plate, mycelial growth; for inhibition at 50 µg/mL: read-out: inhibition rate, Pathogenic fungi of wheat scab
[7] = system: Pathogenic fungi of pepper phytophthora disease; assay: In vitro fungicidal activity, mycelial growth rate method; format: cell-based; details: 50 mg/L, PDA plate; for inhibition at 50 µg/mL: Phytophthora
[8] = system: Rice bakanae pathogenic fungi; assay: Precise toxicity testing, five concentration gradients of toxic PDA plates; format: cell-based
[9] = system: Pathogenic fungi of tomato gray mold; assay: In vitro fungicidal activity, mycelial growth rate method; format: cell-based; details: 50 mg/L, PDA plate
corn rust disease = assay: In vivo protective activity, live pot cultivation method; details: 400 mg/L, sprayed 24 hours before inoculation, potted plants
Experimental: (§1) The determination method was as follows: the live pot cultivation determination method was used, that is, the compound sample to be tested was dissolved in a small amount of solvent (the type of solvent was such as acetone, methanol, and DMF, and was selected according to its dissolving ability for the sample, with a volume ratio of solvent amount to spray amount equal to or less than 0.05), diluted with water containing 0.1% Tween 80, and prepared into a test solution with a required concentration. With a crop sprayer, the test solution was sprayed on a pathogen host plant (the host plant was a standard potted seedling cultivated in a greenhouse), and inoculation with the pathogen was performed after 24 hours. Based on the characteristics of the pathogen, plants that require temperature control and moisturizing cultivation were inoculated and placed in an artificial climate chamber for cultivation, and transferred to a greenhouse for cultivation after the pathogen infection was completed. […] The disease prevention efficacy of the compound was evaluated after the disease had fully developed (usually one week).
(§2) At a concentration of 400 mg/L, the in vivo protective activity determination results of some compounds are as follows: […]

wheat powdery mildew = assay: as above; details: 400 mg/L, sprayed 24 hours before inoculation, potted plants
Experimental: as §1, §2

cucumber downy mildew = assay: as above; details: 400 mg/L, sprayed 24 hours before inoculation, potted plants
Experimental: as §1, §2

## 5-(4-methyl-2-oxo-1-oxaspiro[4,5]-dec-3-en-3-ethylidene)-2-thio-4-thiazolidinone [Compound 3-1]
[1]
  inhibition rate, Pathogenic fungi of rape sclerotinia: 82.4 ± 1.7%
[2]
  inhibition rate, Pathogenic fungi of rice sheath blight: 45.2 ± 2.1%
[3]
  inhibition rate, Pathogenic fungi of rice bakanae disease: 100.0 ± 0.0%
[4]; Rape sclerotinia
  EC50: 2.02 µg/mL
  EC90: 9.81 µg/mL
[5]
  EC50: 0.079 µg/mL
  EC90: 4.97 µg/mL
[6]
  inhibition rate, Pathogenic fungi of wheat scab: 100.0 ± 0.0%
[7]
  inhibition rate, Pathogenic fungi of pepper phytophthora disease: 59.7 ± 0.4%
[8]
  EC50: 0.72 µg/mL
  EC90: 5.04 µg/mL
[9]
  inhibition rate, Pathogenic fungi of tomato gray mold: 62.4 ± 2.5%

## 5-(4-phenyl-2-oxo-1-oxaspiro[4,5]-dec-3-en-3-ethylidene)-2-thio-4-thiazolidinone [Compound 3-4]
[1]
  inhibition rate, Pathogenic fungi of rape sclerotinia: 68.3 ± 4.2%
[2]
  inhibition rate, Pathogenic fungi of rice sheath blight: 31.9 ± 5.6%
[3]
  inhibition rate, Pathogenic fungi of rice bakanae disease: 15.8 ± 2.4%
[6]
  inhibition rate, Pathogenic fungi of wheat scab: 27.7 ± 2.9%
[7]
  inhibition rate, Pathogenic fungi of pepper phytophthora disease: 44.8 ± 0.3%
[9]
  inhibition rate, Pathogenic fungi of tomato gray mold: 33.6 ± 1.7%

## COC(=O)Nc1nc2ccccc2[nH]1 [Carbendazim]
[1]
  inhibition at 50 µg/mL: 72.5 ± 2.1%
[2]
  inhibition at 50 µg/mL: 100%
[3]
  inhibition at 50 µg/mL: 87.5 ± 3.1%
[6]
  inhibition at 50 µg/mL: 100%
[7]
  inhibition at 50 µg/mL: 4.6 ± 1.2%
[9]
  inhibition at 50 µg/mL: 5.4 ± 2.4%

## CCCCNC1=NC(=O)C(=C(C)C2=C(c3ccccc3)C(C)(C)OC2=O)S1 [Compound I-3-5]
Corn rust disease
  efficacy against corn rust disease: 86%

## CC(=C1SC(Nc2ccc(C(F)(F)F)cc2)=NC1=O)C1=C(c2ccc(Cl)cc2)C2(CCCCC2)OC1=O [Compound I-6-9]
Wheat powdery mildew
  efficacy against wheat powdery mildew: 88%

## CCCCNC1=NC(=O)C(=C(C)C2=C(c3ccc(Br)cc3)C3(CCCCC3)OC2=O)S1 [Compound I-7-5]
Cucumber downy mildew
  efficacy against cucumber downy mildew: 95%

## CSc1ccc(C2=C(C(C)=C3SC(Nc4ccccc4-c4ccc(Cl)cc4)=NC3=O)C(=O)OC23CCCCC3)cc1 [Compound I-10-17]
Corn rust disease
  efficacy against corn rust disease: 89%

## CC(=C1SC(Nc2ccc(F)cc2-c2ccc(Cl)c(Cl)c2)=NC1=O)C1=C(c2ccc(C(F)(F)F)cc2)C2(CCCCC2)OC1=O [Compound I-12-15]
Cucumber downy mildew
  efficacy against cucumber downy mildew: 93%

## CC(=C1SC(NCC(C)C)=NC1=O)C1=C(c2cccc(Cl)c2)C2(CCCCC2)OC1=O [Compound I-14-6]
Wheat powdery mildew
  efficacy against wheat powdery mildew: 85%

## CC(=C1SC(Nc2ccccc2)=NC1=O)C1=C(c2cccc(C(F)(F)F)c2)C2(CCCCC2)OC1=O [Compound I-16-7]
Wheat powdery mildew
  efficacy against wheat powdery mildew: 81%

## CCOC(=O)C(C#N)=C(N)c1ccccc1 [Phenamacril]
[1]
  inhibition rate, Pathogenic fungi of rape sclerotinia: 23.0 ± 1.3%
[2]
  inhibition rate, Pathogenic fungi of rice sheath blight: 11.5 ± 1.4%
[3]
  inhibition rate, Pathogenic fungi of rice bakanae disease: 100.0 ± 0.0%
[5]
  EC50: 0.078 µg/mL (≈ 0.361 µM)
  EC90: 5.60 µg/mL (≈ 25.9 µM)
[6]
  inhibition rate, Pathogenic fungi of wheat scab: 100.0 ± 0.0%
[7]
  inhibition rate, Pathogenic fungi of pepper phytophthora disease: 8.1 ± 2.1%
[8]
  EC50: 0.071 µg/mL (≈ 0.328 µM)
  EC90: 0.54 µg/mL (≈ 2.5 µM)
[9]
  inhibition rate, Pathogenic fungi of tomato gray mold: 13.1 ± 0.3%

## Cc1nc(C(F)(F)F)c(C(=O)Nc2c(Br)cc(OC(F)(F)F)cc2Br)s1 [Thifluzamide]
[1]
  inhibition at 50 µg/mL: 83 ± 1.2%
[2]
  inhibition at 50 µg/mL: 90.1 ± 4.5%
[3]
  inhibition at 50 µg/mL: 5.8 ± 1.4%
[4]; Sclerotinia
  EC50: 1.53 µg/mL (≈ 2.9 µM)
  EC90: 16.3 µg/mL (≈ 30.8 µM)
[6]
  inhibition at 50 µg/mL: 13.4 ± 6.3%
[7]
  inhibition at 50 µg/mL: 15.1 ± 2.8%
[9]
  inhibition at 50 µg/mL: 28.2 ± 1.2%
